Where two headings read alike, the source gives them in different places.
Key:
[1] = molecular target: T1, human EHMT2 913-1193 (Homo sapiens, UniProt Q96KQ7); test: EHMT2 enzyme assay on histone peptide substrate; format: biochemical; conditions: histone H3 1-15 peptide, balanced conditions
T1 construct: recombinant purified human EHMT2 913-1193, Viva; purchased Viva
T1 sequence (Q96KQ7 913-1193): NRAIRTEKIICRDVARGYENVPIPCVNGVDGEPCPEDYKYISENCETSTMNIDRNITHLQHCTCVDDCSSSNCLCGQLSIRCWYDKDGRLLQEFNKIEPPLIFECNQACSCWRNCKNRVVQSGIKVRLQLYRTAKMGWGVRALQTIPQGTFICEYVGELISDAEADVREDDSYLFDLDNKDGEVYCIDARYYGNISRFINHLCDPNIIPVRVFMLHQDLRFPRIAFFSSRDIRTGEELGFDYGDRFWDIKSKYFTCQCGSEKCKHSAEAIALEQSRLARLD
Source text: Recombinant purified human EHMT2 913-1193 ([…]) synthesized by Viva was used for all experiments. Biotinylated histone peptides were synthesized by Biopeptide and HPLC-purified to >95% purity. Streptavidin Flashplates and seals were purchased from PerkinElmer and 384 Well V-bottom Polypropylene Plates were from Greiner. ^3H-labeled S-adenosylmethionine (^3H-SAM) was obtained from American Radiolabeled Chemicals with a specific activity of 80 Ci/mmol. Unlabeled SAM and S-adenosylhomocysteine (SAH) were obtained from American Radiolabeled Chemicals and Sigma-Aldrich respectively. Flashplates were washed in a Biotek ELx-405 with 0.1% Tween. 384-well Flashplates and 96-well filter binding plates were read on a TopCount microplate reader (PerkinElmer). Compound serial dilutions were performed on a Freedom EVO (Tecan) and spotted into assay plates using a Thermo Scientific Matrix PlateMate (Thermo Scientific). Reagent cocktails were added by Multidrop Combi (Thermo Scientific).
10-point curves of test compounds were made on a Freedom EVO (Tecan) using serial 3-fold dilutions in DMSO, beginning at 2.5 mM (final top concentration of compound was […] and the DMSO was 2%). A 1 μL aliquot of the inhibitor dilution series was spotted in a polypropylene 384-well V-bottom plate (Greiner) using a Thermo Scientific Matrix PlateMate (Thermo Scientific). The 100% inhibition control consisted of 1 mM final concentration of the product inhibitor S-adenosylhomocysteine (SAH, Sigma-Aldrich). Compounds were incubated for 30 minutes with 40 μL per well of 0.031 nM EHMT2 (recombinant purified human EHMT2 913-1193, Viva) in 1× assay buffer (20 mM Bicine [pH 7.5], 0.002% Tween 20, 0.005% Bovine Skin Gelatin and 1 mM TCEP). 10 μL per well of substrate mix comprising assay buffer, ^3H-SAM (^3H-labeled S-adenosylmethionine, American Radiolabeled Chemicals, specific activity of 80 Ci/mmol), unlabeled SAM (American Radiolabeled Chemicals), and peptide representing histone H3 residues 1-15 containing C-terminal biotin (appended to a C-terminal amide-capped lysine, synthesized by Biopeptide and HPLC-purified to greater than 95% purity) were added to initiate the reaction (both substrates were present in the final reaction mixture at their respective Km values, an assay format referred to as “balanced conditions”). Reactions were incubated for 60 minutes at room temperature and quenched with 10 μL per well of 400 μM unlabeled SAM, then transferred to a 384-well streptavidin Flashplate (PerkinElmer) and washed in a Biotek ELx-405 well washer with 0.1% Tween after 60 minutes. 384-well Flashplates were read on a TopCount microplate reader (PerkinElmer).

[2] = molecular target: T2, EHMT1 (Homo sapiens, UniProt Q9H9B1); test: EHMT1 PEP enzyme assay; format: biochemical
T2 sequence (Q9H9B1 1-1298): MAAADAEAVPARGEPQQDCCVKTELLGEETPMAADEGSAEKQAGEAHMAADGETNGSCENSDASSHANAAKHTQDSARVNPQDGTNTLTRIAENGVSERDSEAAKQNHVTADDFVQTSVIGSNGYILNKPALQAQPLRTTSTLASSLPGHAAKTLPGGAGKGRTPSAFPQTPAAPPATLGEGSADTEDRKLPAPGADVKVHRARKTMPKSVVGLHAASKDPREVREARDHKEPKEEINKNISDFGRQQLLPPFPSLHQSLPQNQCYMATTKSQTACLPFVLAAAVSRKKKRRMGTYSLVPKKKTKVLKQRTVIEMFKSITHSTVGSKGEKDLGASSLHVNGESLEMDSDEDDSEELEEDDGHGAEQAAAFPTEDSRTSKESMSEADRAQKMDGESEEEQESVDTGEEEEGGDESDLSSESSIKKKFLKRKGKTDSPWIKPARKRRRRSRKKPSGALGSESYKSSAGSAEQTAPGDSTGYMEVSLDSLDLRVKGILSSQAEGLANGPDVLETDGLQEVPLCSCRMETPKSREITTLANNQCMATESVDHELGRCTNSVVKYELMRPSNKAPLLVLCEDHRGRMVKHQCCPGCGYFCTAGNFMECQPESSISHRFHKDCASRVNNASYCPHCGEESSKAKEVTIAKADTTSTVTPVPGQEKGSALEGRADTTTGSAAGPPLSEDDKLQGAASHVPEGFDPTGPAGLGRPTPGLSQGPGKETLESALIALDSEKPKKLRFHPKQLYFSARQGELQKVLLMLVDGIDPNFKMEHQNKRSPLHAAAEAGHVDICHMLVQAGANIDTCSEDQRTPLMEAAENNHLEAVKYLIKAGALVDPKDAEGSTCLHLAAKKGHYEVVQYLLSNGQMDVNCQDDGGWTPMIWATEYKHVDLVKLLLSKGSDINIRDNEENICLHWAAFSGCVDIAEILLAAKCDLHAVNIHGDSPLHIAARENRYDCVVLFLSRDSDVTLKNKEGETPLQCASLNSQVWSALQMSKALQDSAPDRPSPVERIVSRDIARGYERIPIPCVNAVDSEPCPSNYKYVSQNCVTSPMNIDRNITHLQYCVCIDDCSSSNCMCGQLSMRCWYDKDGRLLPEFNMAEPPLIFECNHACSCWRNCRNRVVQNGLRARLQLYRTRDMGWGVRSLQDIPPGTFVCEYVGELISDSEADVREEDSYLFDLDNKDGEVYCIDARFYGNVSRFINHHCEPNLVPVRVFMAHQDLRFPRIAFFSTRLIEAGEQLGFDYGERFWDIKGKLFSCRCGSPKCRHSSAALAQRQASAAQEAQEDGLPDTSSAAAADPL

[3] = Table 3A, read-out: EHMT2 (IC50 μM)
[4] = Table 3A, read-out: EHMT1 (IC50 μM)
[5] = Table 3, read-out: EHMT2 PEP (IC50 μM)
[6] = Table 3, read-out: EHMT1 PEP (IC50 μM)

Structure (SMILES) | IC50 [1, 3] | IC50 [2, 4] | IC50 [1, 5] | IC50 [2, 6]
CNC1=Nc2cc(-c3cc4n(n3)CCN(C)C4)c(Cl)cc2C12CCC2 [Compound A12, 5′-chloro-N-methyl-6′-(5-methyl-4,5,6,7-tetrahydropyrazolo[1,5-a]145yrazine-2-yl)spiro[cyclobutane-1,3′-indol]-2′-amine] | > 1 µM | 0.1 to 1 µM |  | 
CNCc1cc(-c2c(OC)ccc(Nc3nc(C)cc(NC)n3)c2F)no1 [Compound A14, N2-(2-fluoro-4-methoxy-3-[5-[(methylamino)methyl]-1,2-oxazol-3-yl]phenyl)-N4,6-dimethylpyrimidine-2,4-diamine] | 0.01 to 0.1 µM | < 0.01 µM |  | 
CNCc1cn(-c2c(OC)cc3c(c2F)N=C(NC)C32CCC2)nn1 [Compound A21] | 0.01 to 0.1 µM | 0.01 to 0.1 µM |  | 
CNc1cc(C)nc(Nc2ccc(OC)c(OC[C@H](O)CN3CC4(CC4)C3)c2)n1 [Compound 41] |  |  | > 10 µM | > 10 µM
CNc1cc(C)nc(Nc2ccc(Cl)c(C(=O)NCCN3CCCC3)c2)n1 [Compound 7] |  |  | 0.1 to 1 µM | < 0.1 µM
CNc1cc(C)nc(Nc2ccc(Cl)c(C(=O)NCC3CCC3)c2)n1 [Compound 3] |  |  | 1 to 10 µM | 0.1 to 1 µM
CNCc1cn(-c2cc(Nc3nc(C)cc(NC)n3)ccc2Cl)nn1 [Compound A1] | < 0.01 µM | < 0.01 µM |  | 
CNCc1cn(-c2cc3c(cc2Cl)C2(CCC2)C(N)=N3)nn1 [Compound A15, 5′-chloro-6′-(4-((methylamino)methyl)-1H-1,2,3-triazol-1-yl)spiro[cyclobutane-1,3′-indol]-2′-amine] | 0.01 to 0.1 µM | 0.01 to 0.1 µM |  | 
CNc1cc(C)nc(Nc2ccc(OC)c(CNC[C@@H](C)N3CCCC3)c2)n1 [Compound 42] |  |  | 0.1 to 1 µM | 0.1 to 1 µM
CNc1cc(C)nc(Nc2ccc(OC)c(-n3cc(C4CCCN4)nn3)c2F)n1 (stereo not drawn) [Compound A4] | 0.01 to 0.1 µM | < 0.01 µM |  | 
CNc1cc(C)nc(Nc2ccc(OC)c(CNCCN3CCC[C@@H]3C)c2)n1 [Compound 32] |  |  | > 10 µM | 0.1 to 1 µM
CNCc1cn(-c2c(OC)ccc(Nc3nc(C)cc(NC)n3)c2F)nn1 [Compound A3, N2-(2-fluoro-4-methoxy-3-[4-[(methylamino)methyl]-1H-1,2,3-triazol-1-yl]phenyl)-N4,6-dimethylpyrimidine-2,4-diamine] | 0.01 to 0.1 µM | < 0.01 µM |  | 
CNc1cc(C)nc(Nc2ccc(Cl)c(C(=O)Nc3cccnn3)c2)n1 [Compound 5] |  |  | > 10 µM | 1 to 10 µM
CNc1cc(C)nc(Nc2ccc(OC)c(C#CCNCCN(C)C)c2)n1 [Compound 49] |  |  | 1 to 10 µM | 0.1 to 1 µM
CNCc1cn(-c2cc3c(cc2Cl)C2(CCC2)C(NC)=N3)nn1 [Compound A11, 5′-chloro-N-methyl-6′-(4-((methylamino)methyl)-1H-1,2,3-triazol-1-yl)spiro[cyclobutane-1,3′-indol]-2′-amine] | 0.01 to 0.1 µM | < 0.01 µM |  | 
CNc1cc(C)nc(Nc2ccc(Cl)c(C(=O)NCC3COC3)c2)n1 [Compound 2, 2-chloro-5-[[4-methyl-6-(methylamino)pyrimidin-2-yl]amino]-N-(oxetan-3-ylmethyl)benzamide] |  |  | > 10 µM | 1 to 10 µM
CNc1cc(C)nc(Nc2ccc(C)c(C(=O)Nc3c[nH]cn3)c2)n1 [Compound 37] |  |  | 1 to 10 µM | 1 to 10 µM

Structure (SMILES) | IC50 [1, 3] | IC50 [2, 4] | IC50 [1, 5] | IC50 [2, 6]
CNc1cc(C)nc(Nc2ccc(Cl)c(C(=O)Nc3cn(C)cn3)c2)n1 [Compound 15] |  |  | > 10 µM | > 10 µM
CNc1cc(C)nc(Nc2ccc(OC)c(CNCCN3CC[C@H](C)C3)c2)n1 [Compound 39] |  |  | 0.1 to 1 µM | 0.1 to 1 µM
CNc1cc(C)nc(Nc2ccc(OC)c(CN[C@@H](C)CN3CCCC3)c2)n1 [Compound 47] |  |  | 0.1 to 1 µM | 0.1 to 1 µM
CCCCNC(=O)c1cc(Nc2nc(C)cc(NC)n2)ccc1Cl [Compound 9] |  |  | 1 to 10 µM | 0.1 to 1 µM
CNC1=Nc2cc(-n3cc([C@H]4CCCN4)nn3)c(Cl)cc2C12CCC2 [Compound A2R, (R)-5′-chloro-N-methyl-6′-(4-(pyrrolidin-2-yl)-1H-1,2,3-triazol-1-yl)spiro[cyclobutane-1,3′-indol]-2′-amine] | < 0.01 µM | < 0.01 µM |  | 
CNc1cc(C)nc(Nc2ccc(Cl)c(C(=O)NC3CCOCC3)c2)n1 [Compound 8] |  |  | > 10 µM | > 10 µM
CNc1cc(C)nc(Nc2ccc(Cl)c(C(=O)Nc3cscn3)c2)n1 [Compound 13] |  |  | 1 to 10 µM | 0.1 to 1 µM
CNc1cc(C)nc(Nc2ccc(OC)c(OC[C@H](O)CN3CCCCC3)c2)n1 [Compound 40] |  |  | > 10 µM | > 10 µM
CNc1cc(C)nc(Nc2ccc(C)c(C(=O)Nc3cn(C4CC4)cn3)c2)n1 [Compound 36] |  |  | > 10 µM | > 10 µM
CNc1cc(C)nc(Nc2ccc(C)c(C(=O)Nc3cc(C#N)ccn3)c2)n1 [Compound 30] |  |  | > 10 µM | 1 to 10 µM
CNc1cc(C)nc(Nc2ccc(OC)c(-n3cc(CNC(C)C)cn3)c2F)n1 [Compound A5] | 0.1 to 1 µM | 0.1 to 1 µM |  | 
CNc1cc(C)nc(Nc2ccc(OC)c(CNCCN3CC(C)C3)c2)n1 [Compound 35] |  |  | > 10 µM | > 10 µM
CNc1cc(C)nc(Nc2ccc(OC)c(-n3cc([C@@H]4CCCN4)nn3)c2F)n1 [Compound A4S] | 0.1 to 1 µM | 0.01 to 0.1 µM |  | 
CNc1cc(C)nc(Nc2ccc(OC)c(-n3cc([C@H]4CCCN4)nn3)c2F)n1 [Compound A4R] | 0.01 to 0.1 µM | < 0.01 µM |  | 
CNc1cc(C)nc(Nc2ccc(OC)c(CNC[C@H](C)N3CCCC3)c2)n1 [Compound 43] |  |  | > 10 µM | > 10 µM
CNc1cc(C)nc(Nc2ccc(C)c(C(=O)Nc3ncn(C)n3)c2)n1 [Compound 33] |  |  | > 10 µM | 1 to 10 µM

— patent US20200317642A1, “AMINE-SUBSTITUTED HETEROCYCLIC COMPOUNDS AS EHMT2 INHIBITORS AND DERIVATIVES THEREOF” (Epizyme, Inc., priority 2017, published 2020)
